Where “and” joins values, the source holds several entries; their conditions need not be identical. Equal values may be shown once. Read-outs that look alike come from different tables or passages of the source.
Target: T1, plasma kallikrein (PKa) (Homo sapiens, UniProt P03952)
T1 construct: purchased R & D 2497-SE
Test: Inhibitory activity against plasma kallikrein in vitro (fluorescence intensity enzyme assay, Pro-Phe-Arg-AMC substrate)
Format: biochemical
Conditions: Pro-Phe-Arg-AMC substrate
Protocol: Test of the inhibitory activities of the compounds of the present invention against plasma kallikrein (PKa), KLK1 and FXIa in vitro.
The final concentrations of enzyme protein and Pro-Phe-Arg-AMC in the reaction mixture were 10 nM and 60 µM, respectively. The starting concentration of the positive reference substance Avoralstat was 100 nM, 3-fold dilution, 10 + 0 dose. 0.05 µL of compound in 100% DMSO was delivered to a 384-well plate by an acoustic liquid delivery technique (Echo665; nanoliter range). Compound duplex test. […] IC50 values and nonlinear regression curve fitting were obtained using GraphPad Prism software.

[1] = plasma kallikrein enzyme assay, read-out: PKa IC50

T1 sequence (P03952 391-638 limits assumed): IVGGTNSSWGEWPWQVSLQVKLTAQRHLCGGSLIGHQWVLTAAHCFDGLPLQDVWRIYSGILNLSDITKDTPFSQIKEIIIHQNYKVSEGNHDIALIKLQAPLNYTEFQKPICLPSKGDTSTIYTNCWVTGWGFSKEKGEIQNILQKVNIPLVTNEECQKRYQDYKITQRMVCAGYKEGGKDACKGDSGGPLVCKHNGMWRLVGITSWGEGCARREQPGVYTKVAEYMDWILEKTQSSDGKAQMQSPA
T1 sequence (P03952 20-390 partner limits assumed): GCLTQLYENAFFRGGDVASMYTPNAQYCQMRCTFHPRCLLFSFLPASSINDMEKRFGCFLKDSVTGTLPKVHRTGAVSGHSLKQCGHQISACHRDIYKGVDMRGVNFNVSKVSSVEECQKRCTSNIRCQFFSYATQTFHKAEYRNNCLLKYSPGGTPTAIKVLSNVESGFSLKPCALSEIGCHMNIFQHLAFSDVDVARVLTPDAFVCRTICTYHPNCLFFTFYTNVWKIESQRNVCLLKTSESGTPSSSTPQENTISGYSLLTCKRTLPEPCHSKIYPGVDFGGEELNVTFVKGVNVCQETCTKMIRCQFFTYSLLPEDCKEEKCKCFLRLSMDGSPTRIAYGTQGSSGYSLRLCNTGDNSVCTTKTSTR

Row | IC50 [1] | IC50 (PKa IC50, plasma kallikrein enzyme assay) [nM] | SMILES
1 | 86 nM | – | COc1ccnc(CNC(=O)c2cn(Cc3ccc(Cn4ccccc4=O)cc3)nc2N2CC[C@@H](OC)C2)c1F [Compound 171]
2 | 113 nM | – | CC[C@@H](COC)OCc1nn(Cc2ccc(Cn3ccccc3=O)cc2)cc1C(=O)NCc1nccc(OC)c1F [Compound 172]
3 | 11.8 nM | – | COc1ccnc(CNC(=O)c2cn(Cc3ccc(Cn4ccccc4=O)cc3)nc2C2CN(C(=O)C(C)C)C2)c1F [Compound 173]
4 | 11.5 nM | – | COc1ccnc(CNC(=O)c2cn(Cc3ccc(Cn4ccccc4=O)cc3)nc2CN2CC(C)(C)CC2=O)c1F [Compound 174]
5 | 18 nM | – | CCn1c(CNC(=O)c2cn(Cc3ccc(Cn4ccccc4=O)cc3)nc2COC)cc2cnccc21 [Compound 176]
6 | 17.5 nM | – | O=C(NCc1cc2ccncc2[nH]1)c1nc(Cc2ccc(Cn3ccccc3=O)cc2)ns1 [Compound 177]
7 | 7.74 nM | – | N#Cc1cc(N2CC3C(C2)C3(F)F)ccc1Cn1cc(C(=O)NCc2cc3ccncc3[nH]2)c(C(F)(F)F)n1 (stereo not drawn) [Compound 178]
8 | 15 nM | – | COc1ccc(F)c(CNC(=O)c2cn(Cc3ccc(Cn4cc(F)ccc4=O)cc3)nc2[C@H](C)C2COC2)c1F [Compound 179]
9 | 7.88 nM | – | COc1ccc(F)c(CNC(=O)c2cn(Cc3ccc(Cn4cc(F)ccc4=O)cc3)nc2[C@@H](C)C2COC2)c1F [Compound 180]
10 | 613 nM | – | COc1ccnc(CNC(=O)c2cn(Cc3ccc(CN4C(=O)C5(CC5)c5ccc(F)cc54)cc3)nc2C(F)(F)F)c1F [Compound 181]
11 | > 1000 nM | – | COCc1nn(Cc2ccc(N3CCCCC3=O)cc2C#N)cc1C(=O)NCc1nccc(OC)c1F [Compound 182]
12 | 84.5 nM | – | COCc1nn(Cc2ccc(Oc3ccccc3)cc2)cc1C(=O)NCc1cc2ccncc2[nH]1 [Compound 185]
13 | 709 nM | – | O=C(NCc1cc2ccncc2[nH]1)c1cn(Cc2ccc(Oc3ccccc3)cc2)nc1C(F)(F)F [Compound 186]
14 | 10.8 nM | – | Nc1ncc2cc(CNC(=O)c3cnn(Cc4ccc(Cn5ccccc5=O)cc4)c3)ccn12 [Compound 187]
15 | 2.74 nM | – | COCc1nn(Cc2ccc(N3CC4C(C3)C4(F)F)cc2C#N)cc1C(=O)NCc1c(C)cn2cncc2c1C (stereo not drawn) [Compound 188]
16 | 180 nM | – | COc1ccc(C#N)c(CNC(=O)c2cnn(Cc3ccc(Cn4ccccc4=O)cc3)c2)c1C [Compound 189]
17 | > 1000 nM | – | COCc1nn(Cc2ccc(Cn3ccccc3=O)cc2)cc1C(=O)NCc1c(C#N)ccc(OC)c1C [Compound 190]
18 | 16.3 nM | – | COc1ccnc(CNC(=O)c2cn(Cc3ccc(Cn4ccccc4=O)cc3)nc2COCCN(C)C)c1F [Compound 191]
19 | > 1000 nM | – | COCCn1c(CNC(=O)c2cn(Cc3ccc(Cn4ccccc4=O)cc3)nc2COC)cc2cnccc21 [Compound 192]
20 | 192 nM | – | CCc1cc(N2CC3C(C2)C3(F)F)ccc1Cn1cc(C(=O)NCc2cc3cnccc3[nH]2)c(COC)n1 (stereo not drawn) [Compound 195]
21 | 15.3 nM | – | Cn1c(CNC(=O)c2cn(Cc3ccc(Cn4ccccc4=O)cc3)nc2C(F)(F)F)cc2cnccc21 [Compound 196]

Row | IC50 [1] | IC50 (PKa IC50, plasma kallikrein enzyme assay) [nM] | SMILES
22 | 164 nM | – | O=C(NCc1ccc2ccncc2c1)c1cnn(Cc2ccc(Cn3ccccc3=O)cc2)c1 [Compound 197]
23 | > 1000 nM | – | COc1ccnc(CNC(=O)c2cn(Cc3ccc(Cn4c(C(F)(F)F)nccc4=O)cc3)nc2C(F)(F)F)c1F [Compound 198]
24 | 19.8 nM | – | CCc1cc(N2CC3C(C2)C3(F)F)ccc1Cn1cc(C(=O)NCc2cc3ccncc3[nH]2)c(C(F)(F)F)n1 (stereo not drawn) [Compound 199]
25 | 5.66 nM | – | Cc1cn2cncc2c(C)c1CNC(=O)c1cn(Cc2ccc(N3CC4C(C3)C4(F)F)cc2C#N)nc1C(F)(F)F (stereo not drawn) [Compound 200]
26 | 10.8 nM | – | COc1ccnc(CNC(=O)c2cn(Cc3ccc(Cn4ccccc4=O)cc3)nc2CN2CCC(OC)CC2)c1F [Compound 201]
27 | > 1000 nM | – | COc1ccc(C#N)c(CNC(=O)c2cn(Cc3ccc(Cn4ccccc4=O)cc3)nc2C(F)(F)F)c1C [Compound 202]
28 | – | 8.98 | COCC1(F)CN(Cc2nn(Cc3ccc(Cn4ccccc4=O)cc3)cc2C(=O)NCc2nccc(OC)c2F)C1 [Compound 205, 3-((3-fluoro-3-(methoxymethyl)azetidin-1-yl)methyl)-N-(3-fluoro-4-methoxypyridin-2-yl)methyl]
29 | 318 nM | – | Cc1cc2ncnn2c(C)c1CNC(=O)c1cn(Cc2ccc(Cn3ccccc3=O)cc2)nc1C(F)(F)F [Compound 206]
30 | 165 nM | – | O=C(NCc1ccc2cnccc2c1)c1cnn(Cc2ccc(Cn3ccccc3=O)cc2)c1 [Compound 207]
31 | 7.99 nM | – | COc1ccnc(CNC(=O)c2cn(Cc3ccc(Cn4ccccc4=O)cc3)nc2C2CC(OC)C2)c1F (stereo not drawn) [Compound 208]
32 | 10.6 nM and > 100 nM | – | COc1ccc(F)c(CNC(=O)c2cn(Cc3ccc(Cn4cc(F)ccc4=O)cc3)nc2C2CC(F)(F)C2)c1F [Compound 209, N-(2,6-difluoro-3-methoxybenzyl)-3-(3,3-difluorocyclobutyl)-1-(4-((5-fluoro-2-oxopyridin-1(2H)yl)methyl)benzyl)-1H-pyrazole-4-carboxamide]
33 | 5.99 nM | – | COc1ccnc(CNC(=O)c2cn(Cc3ccc(Cn4ccccc4=O)cc3)nc2C2CC(C)(OC)C2)c1F (stereo not drawn) [Compound 210]
34 | 8.34 nM | – | COc1ccc(F)c(CNC(=O)c2cn(Cc3ccc(Cn4ccccc4=O)cc3)nc2C2CC(C)(OC)C2)c1F (stereo not drawn) [Compound 211]
35 | 797 nM | – | Nc1nc2ccc(CNC(=O)c3cnn(Cc4ccc(Cn5ccccc5=O)cc4)c3)cc2s1 [Compound 215]
36 | 2.64 nM | – | COc1ccnc(CNC(=O)c2cn(Cc3ccc(Cn4ccccc4=O)cc3)nc2C2CC2(F)F)c1F (stereo not drawn) [Compound 216]
37 | 4.98 nM | – | COc1ccc(F)c(CNC(=O)c2cn(Cc3ccc(Cn4cc(F)ccc4=O)cc3)nc2COCCN(C)C)c1F [Compound 219]
38 | 12 nM | – | COCC1(F)CN(Cc2nn(Cc3ccc(Cn4cc(F)ccc4=O)cc3)cc2C(=O)NCc2c(F)ccc(OC)c2F)C1 [Compound 220]
39 | 11.9 nM | – | COCC1(F)CN(c2nn(Cc3ccc(Cn4ccccc4=O)cc3)cc2C(=O)NCc2nccc(OC)c2F)C1 [Compound 223]
40 | 28.2 nM | – | COc1ccnc(CNC(=O)c2cn(Cc3ccc(Cn4ccccc4=O)cc3)nc2N2CCOCC2)c1F [Compound 224]
41 | 10.9 nM | – | COc1ccc(F)c(CNC(=O)c2cn(Cc3ccc(Cn4cc(F)ccc4=O)cc3)nc2OCCF)c1F [Compound 226]
42 | 9.15 nM | – | COc1ccc(F)c(CNC(=O)c2cn(Cc3ccc(Cn4cc(F)ccc4=O)c(F)c3)nc2C2CC(OC)C2)c1F (stereo not drawn) [Compound 227]

Row | IC50 [1] | IC50 (PKa IC50, plasma kallikrein enzyme assay) [nM] | SMILES
43 | 16.4 nM | – | COc1ccc(F)c(CNC(=O)c2cn(Cc3ccc(Cn4cc(F)ccc4=O)c(F)c3)nc2C2CC(F)(F)C2)c1F [Compound 228]
44 | 22.9 nM | – | COc1ccnc(CNC(=O)c2cn(Cc3ccc(Cn4ccccc4=O)cc3)nc2OCc2ccccn2)c1F [Compound 229]
45 | 9.8 nM | – | COc1ccc(F)c(CNC(=O)c2cn(Cc3ccc(Cn4ccccc4=O)cc3)nc2COCCN2CCCC2)c1F [Compound 230]
46 | 3.66 nM | – | COc1ccc(F)c(CNC(=O)c2cn(Cc3ccc(Cn4cc(F)ccc4=O)cc3)nc2COCCN2CCCC2)c1F [Compound 231]
47 | 7.15 nM | – | COc1ccnc(CNC(=O)c2cn(Cc3ccc(Cn4ccccc4=O)cc3)nc2N2CC(C)(OC)C2)c1F [Compound 232]
48 | 9.73 nM | – | COc1ccc(F)c(CNC(=O)c2cn(Cc3ccc(Cn4ccccc4=O)cc3)nc2N2CC(F)(F)C2)c1F [Compound 233]
49 | 4.97 nM | – | COc1ccc(F)c(CNC(=O)c2cn(Cc3ccc(Cn4cc(F)ccc4=O)cc3)nc2COCC2(F)COC2)c1F [Compound 234]
50 | 3.33 nM | – | COc1ccnc(CNC(=O)c2cn(Cc3ccc(Cn4ccccc4=O)cc3)nc2COCC2(F)COC2)c1F [Compound 235, N-((3-fluoro-4-methoxypyridin-2-yl)methyl)-3-((3-fluorooxetan-3-yl)methoxy)methyl]
51 | 16.6 nM | – | COc1ccc(F)c(CNC(=O)c2cn(Cc3ccc(Cn4cc(F)ccc4=O)cc3)nc2COC2(C)COC2)c1F [Compound 236]
52 | 2.78 nM | – | COc1ccc(F)c(COC(=O)c2cn(Cc3ccc(Cn4cc(F)ccc4=O)cc3)nc2NC2(C)COC2)c1F [Compound 237]
53 | 9.15 nM | – | COc1ccnc(CNC(=O)c2cn(Cc3ccc(Cn4ccccc4=O)cc3)nc2CN2CC3(COC3)C2)c1F [Compound 238]
54 | 6.95 nM | – | CCN(CC)CCOCc1nn(Cc2ccc(Cn3ccccc3=O)cc2)cc1C(=O)NCc1nccc(OC)c1F [Compound 239]
55 | 12.6 nM | – | COc1ccc(F)c(CNC(=O)c2cn(Cc3ccc(Cn4ccccc4=O)cc3)nc2COC2CCC2)c1F [Compound 240]
56 | 14.3 nM | – | N=C(N)c1ccc(CNC(=O)c2cnn(Cc3ccc(CC4CC4)cc3)c2)nc1 [Compound 243]
57 | 2.85 nM | – | COc1ccc(F)c(CNC(=O)c2cn(Cc3ccc(Cn4ccccc4=O)cc3)nc2CN2C(=O)CCC2=O)c1F [Compound 248]
58 | 7.89 nM | – | COc1ccnc(CNC(=O)c2cn(Cc3ccc(Cn4ccccc4=O)cc3)nc2COC2COC2)c1F [Compound 249]
59 | 63 nM | – | COc1ccc(F)c(CNC(=O)c2cn(Cc3ccc(Cn4ccccc4=O)cc3)nc2C2(OC)CCC2)c1F [Compound 258]
60 | 7.78 nM | – | CNc1ccnc(CNC(=O)c2cn(Cc3ccc(Cn4ccccc4=O)cc3)nc2C2COC2)c1F [Compound 260, N-((3-fluoro-4-(methylamino)pyridin-2-yl)methyl)-3-(oxetan-3-yl)-1-(4-((2-oxopyridin-1(2H)-yl)methyl)benzyl)-1H-pyrazole-4-carboxamide]
61 | 6.91 nM | – | CNc1ccnc(CNC(=O)c2cn(Cc3ccc(Cn4ccccc4=O)cc3)nc2N2CC(F)(F)C2)c1F [Compound 265]
62 | 68.6 nM | – | Nc1ccnc(CNC(=O)c2cn(Cc3ccc(Cn4ccccc4=O)cc3)nc2N2CC(F)(F)C2)c1F [Compound 268]
63 | > 1000 nM | – | CC(C)CNc1ccnc(CNC(=O)c2cn(Cc3ccc(Cn4ccccc4=O)cc3)nc2C2COC2)c1F [Compound 269]
